Experimental data from US8808718B2, “Hypertonic organic acid or salt thereof disinfectant composition and its use in dental treatment” (Nikinc Pharma B.V., priority 2010, dated 2014).
Where “and” joins values, the source holds several entries; their conditions need not be identical. Identical values can stand only once. Like-named read-outs stand apart in the source and are kept apart here.

Experiments:
[1] = test system: biofilm of Enterococcus faecalis and Pseudomonas aeruginosa; assay: Dual-species biofilm model, whole biofilm (total kill, plaque observation); format: cell-based; details: for visual observation of biofilm plaque on glass coverslips: after the experimental phase, calcification seen after 24 h
From the text: The broth was refreshed daily. […] Later on biofilm growth was confirmed clinically. […] Colonies were very small. […] For imaging a Leica DM-IRB inverted microscope/SP2-AOBS confocal system was used. Images (512*512 pixels) were acquired with a 40×/NA 1.25 HCX PL APO oil objective. The final pixel size was 0.776 μm. […] Image stacks were acquired with a stepsize of 0.3 μm. Excitation/detection of Syto-9 and propidium iodide (PI) was done simultaneously with 488 nm excitation and with 500-550 nm detection for SYTO 9 and 600-690 nm detection for PI respectively.

Enterococcus faecalis = details: for mean log reduction of CFU compared with the controls: E. faecalis in dual-species biofilm; for significance of reduction of E. faecalis vs negative controls (ANOVA): α=0.05
Procedure: (§1) In brief, round glass cover slips attached to a custom made stainless steel lid, were suspended in medium inoculated with bacteria.
(§2) Cells of E. faecalis V583 and P. aeruginosa, both clinical isolates, were grown and maintained as pure cultures on blood agar plates. E. faecalis was grown under anaerobic conditions (80% N2, 10% H2 and 1.0% CO2) while P. aeruginosa was grown in air, both at 37° C. Because of their shape, Gram-staining and atmospheric preferences, distinguishing between the two species with (ISM and CFU was fairly simple. Growth media for overnight cultures and biofilms were Brain Heart Infusion Broth (BHI, Oxoid, Basinstoke, UK) and BHI-broth contained 0.5 BHI, 50 mM pipes, 5% saccharose, 1 mM Ca^2+ during biofilm growth. In the experimental phase, sodium chloride (NaCl), (Merck, Darmstadt, Germany) was added to the BHI-broth to raise the osmotic value. Other medicaments used were saturated Ca(OH) in BHI-broth (slurry), 2% sodium hypochlorite (NaOCl), Merck, Darmstadt, Germany), 2% sodium thiosulphate (STS) in peptone water (1% peptone (Oxoid) in water) for neutralising the NaOCl. Phosphate buffered saline (PBS, Oxoid) was used to wash the negative controls, as a neutralising agent for NaCl, Ca(OH)2 and for serial
(§3) Fresh cultures of each micro-organism were obtained by suspending one loopful bacteria in 5 mL BHI and grown overnight at 37° C. in air. Numbers of CFU were estimated by optical density measurement at 600 nm and relating the readings to previously performed bacterial counts. 100 μL with approximately 2×10^9 E. faecalis and 100 μL with approximately 2×10^7 P. aeruginosa were inoculated in wells of a 24 Well Multiwell Plate (Greiner Bio-one, Frickenhausen, Germany) containing 1.5 mL BHI-broth. Round glass cover slips (MMG, Germany), diameter 15 mm, mounted in a custom-made stainless steel lid, were suspended in the BHI-broth. Biofilms were grown on glass cover slips to be able to monitor the biofilm growth with a confocal laser scanning microscope (CLSM; Leica SP2-OBS). The biofilms were firmly attached on the glass slips, allowing manipulation of the coverslips without biofilm disruption.
(§4) Biofilms were grown on the coverslips for 96 h before exposure to the medicaments. […] The broth was refreshed daily. Inoculation of bacteria and the biofilm growth took place at 37° C. in air. After 48 h biofilm growth was confirmed with the aid of CLSM. Three coverslips with attached biofilms were viewed with CLSM after staining with Syto 9 and propidium iodine (PI) (LIVE/DEAD® BacLight™) according to the manufacturer's instruction. Intact, live cells stain fluorescent green, while dead cells with damaged plasma membranes stain fluorescent red.
(§5) After 96 h the coverslips with the attached bio films were submerged in NaCl-broth or Ca(OH)2-broth for 4 h, 24 h, 48 h, 72 h and 168 h. The negative controls were kept in BHI-broth. Where applicable, the incubation fluids were refreshed daily. Submersion in NaOCl 2% for 10 min served as a positive control.

Pseudomonas aeruginosa = details: for mean log reduction of CFU compared with the controls: P. aeruginosa in dual-species biofilm; for significance of reduction of P. aeruginosa vs negative controls (ANOVA): α=0.05
Procedure: as §1, §2, §3, §4, §5

[2] = dual-species biofilms exposed to Ca(OH)2

Compound | effectiveness in the biofilm model (conclusion) [1] | visual observation of biofilm plaque on glass coverslips [1] | bacterial reduction after a week (end of experiment) [1, 2] | bacterial reduction, initial [1, 2] | mean log reduction of CFU compared with the controls (Enterococcus faecalis; 72 h exposure) [log CFU] | mean log reduction of CFU compared with the controls (Enterococcus faecalis; 168 h exposure) [log CFU] | significance of reduction of E. faecalis vs negative controls (ANOVA) (Enterococcus faecalis) | mean log reduction of CFU compared with the controls (Pseudomonas aeruginosa; 72 h exposure) [log CFU] | mean log reduction of CFU compared with the controls (Pseudomonas aeruginosa; 168 h exposure) [log CFU] | significance of reduction of P. aeruginosa vs negative controls (ANOVA) (Pseudomonas aeruginosa) | kill ([1]; 2% NaOCl, 10 min exposure) [%] | reductions after a week's exposure ([1]; 6.2 M NaCl in broth, dual species biofilm, one value per species, species not assigned) | mean remaining CFU of E. faecalis (Enterococcus faecalis; after 168 h exposure) [CFU] | P. aeruginosa CFU detected after exposure (Pseudomonas aeruginosa; after 168 h exposure, control biofilms 1.5×10^9 CFU)
[Ca+2].[OH-].[OH-] [Ca(OH)2, calcium hydroxide] | not effective | all samples showed bio film calcification | tenfold | hundredfold | 2 | 1 | not significant | 2 | 1 | significantly |  |  |  | 
OCl [NaOCl, sodium hypochlorite] |  |  |  |  |  |  |  |  |  |  | 100 |  |  | 
[Cl-].[Na+] [NaCl, sodium chloride] |  | no signs of a biofilm plaque |  |  | 6 | 8 | highly significant | 6 | 8 | highly significant |  | 10^8 and 10^7 | 40 | none could be detected
